{"source": "patent US20050129779A1", "about": "“Use of a hsp inducing compound to limit the side effects of retinoids” (priority 2002, published 2005)", "key": {"HSP 70 [1]": {"tested_on": "HSP 70", "experiment": "Immuno-blot of HSP in cultured human fibroblasts", "type": "cell-based", "settings": "10^-7 M ATRA, 3% extract", "experimental": "[…] Several different experimental conditions were used for the fibroblasts.\nThe conditions that were tested on the fibroblasts were as follows: • Control condition (non-treated cells) • Cells treated with 10^−7M all-trans retinoic acid (ATRA) • Cells treated with 3% of the extract from example 1 • Cells treated with 10^−7 M all-trans retinoic acid and 3% of the extract from example 1.\nThe results illustrated in FIGS. 1 and 2 represent the quantities of HSP obtained by immunoblotting carried out on the human fibroblasts following the treatments in various culture conditions."}, "HSP 70 [2]": {"tested_on": "HSP 70", "experiment": "Ex vivo immunostaining of HSP 70 in cultured skin samples", "type": "cell-based", "settings": "ex vivo skin cultured 5 days; 10^-7 retinoic acid; 1-3% extract", "from_the_text": "Ex vivo immunostaining studies have enabled it to be determined that HSP 70 is expressed in skin samples which have been cultured for 5 days. The samples were either treated or untreated with 10^−7retinoic acid plus 1-3% of the extract from example 1."}, "IL-1 alpha": {"tested_on": "IL-1 alpha", "experiment": "Interleukin-1 ELISA in HaCat keratinocytes and fibroblasts (inflammation induced by retinoids)", "type": "cell-based, human", "settings": "10^-7 M ATRA 6 days, 3% extract 48 hours", "experimental": "The Artemia extract from example 1 was used at 3% in in vitro tests in order to show the benefits of applying it in combination with retinoids, with the overall goal of diminishing the inflammation induced by retinoids.\nHuman HaCat keratinocytes and fibroblasts were cultured in 100mm diameter culture dishes. When the cells reached 50% confluence, they were either treated with 3% of extract from example 1 or not, for 48 hours. In a parallel manner, concentrations of 10^−7M all-trans retinoic acid (ATRA) were, or were not, applied.\nThe following experimental conditions were used for the different treatment groups: • Control condition (no treatment); • Extract from example 1 for 48n hours; • All-trans retinoic acid (ATRA) for 6 days; • All-trans retinoic acid (ATRA) for 6 days of which 48 hours were treated in combination with the extract from example 1.\nAfter six days in culture, the dose of Interleukin-1 was determined using ELISA, to show evidence of an inflammatory reaction."}, "HSP 70 [3]": {"tested_on": "HSP 70", "settings": "ex vivo skin irradiated with 200 mJ/cm^2 UVB; 10^-7 retinoic acid; 1-3% extract", "description": "The samples were either treated or untreated with 10^−7retinoic acid plus 1-3% of the extract from example 1. The skin samples were subsequently fixed in 9% formol salt for 10 hours. They were then embedded in paraffin using an automated method. 2-3 urn sections were then cut to be used for immunostaining.\nThe experiments in example three were repeated except that the skin samples were irradiated with a 200 mJ/cm^2 dose of UVB."}}}
{"compound": "CC1=C(/C=C/C(C)=C/C=C/C(C)=C/C(=O)O)C(C)(C)CCC1", "note": "[retinoic acid, all-trans retinoic acid]", "values": [{"measurement": "HSP 70 expression (immuno-blot, FIG. 2)", "setting": "HSP 70 [1]; aging human fibroblasts (printed: cultured)", "result": "slightly augmented"}, {"measurement": "HSP 70 expression (immuno-blot, FIG. 1)", "setting": "HSP 70 [1]; young human fibroblasts (printed: cultured for 24 hours)", "result": "diminished"}, {"measurement": "HSP 70 expression in skin samples (immunostaining)", "setting": "HSP 70 [2]", "result": "clearly express less HSP 70 than non-treated skin samples"}, {"measurement": "IL-1 alpha concentration / inflammatory response (ELISA, FIG. 3)", "setting": "IL-1 alpha", "result": "significantly augmented"}, {"measurement": "HSP 70 expression in skin samples following UV stress (immunostaining)", "setting": "HSP 70 [3]", "result": "clearly diminished"}]}
